“Also recorded” adds a separate entry of the source.
Assays:
Huh7 cells = assay: MTS assay to determine cytotoxicity; type: cell-based, human; conditions: 24 hours, up to 50 μM
Procedure: MTS assay to determine cytotoxicity. Cultured human Huh7 cells are treated with increasing amounts of KIN600 or equivalent amounts of DMSO diluted in media for 24 hours to see their effect on cell viability.
Cell Titer One (Promega) is the one step reagent used according to manufacturer's protocol, and cells are incubated for three hours in the presence of reagent before O.D. reading is done. Compounds were diluted to final concentrations of 0, 5, 10, 20, and 50 μM in media containing 0.5% DMSO. Negative control wells contain no compound and positive control for cytotoxicity is examined using an EMCV infection which causes 100% cytopathic effect. Each compound concentration and control is done in triplicate wells to generate error bars.
Final KIN600 concentrations of 50 μM, 20 μM, 10 μM, and 5 μM were made in 0.5% DMSO containing media and were added to Huh7 cells to examine cytotoxicity in a MTS assay. Cells were treated for 24 hours with varying concentrations of compound and were analyzed for cell viability compared to negative control samples that were not treated with compound but grown in DMSO containing media. The cellular metabolism (O.D.) was in the range of 1.75 to below 2.0 at compound concentrations of 50 μM, 20 μM, 10 μM, 5 μM, and 0.

[1] = test system: Murine Encephalomyocarditis virus (EMCV); assay: EMCV antiviral assay (cell viability by MTS after infection); conditions: Huh7 cells, 250 pfu EMCV, 18 hours
HCV2a virus = assay: HCV IF antiviral assay; type: cell-based, Hepatitis C virus

## COC(=O)c1sccc1S(=O)(=O)Nc1ccc2c(c1)OCO2 [KIN600]
Huh7 cells
  cytotoxicity (result in words): no significant cytotoxicity; also recorded: no significant toxicity
[1]; 5 μL
  Cell viability post-infection: ~0.7
[1]; 10 μL
  Cell viability post-infection: ~1.4
HCV2a virus; Huh7 cells pre-treated 24 hours at 10 μM, HCV2a MOI 0.1-0.5
  HCV infected foci (number of FFU/well): 12±4 FFU/well
HCV2a virus; Huh7 cells, HCV2a
  antiviral activity against HCV (result in words): showed antiviral activity; also recorded: has antiviral properties

— patent US8895608B2, “Sulfonamide anti-viral compounds” (Kineta, Inc., priority 2010, dated 2014)
